In ChEMBL document CHEMBL4507268 (2021):

How the values were obtained:
[1] = tested on: Tyrosine-protein kinase ABL1 (Homo sapiens), P00519 [E255K]; details: Compound concentration 1000.0 nM
[2] = target: Dual specificity protein kinase CLK2 (Homo sapiens) (UniProt P49760); details: Compound concentration 1000.0 nM
[3] = target: Casein kinase I isoform gamma-2 (Homo sapiens) (UniProt P78368); details: Compound concentration 1000.0 nM
[4] = target: T1, Serine/threonine-protein kinase 17A (Homo sapiens) (UniProt Q9UEE5); details: Compound concentration 1000.0 nM
T1 sequence (whole entry): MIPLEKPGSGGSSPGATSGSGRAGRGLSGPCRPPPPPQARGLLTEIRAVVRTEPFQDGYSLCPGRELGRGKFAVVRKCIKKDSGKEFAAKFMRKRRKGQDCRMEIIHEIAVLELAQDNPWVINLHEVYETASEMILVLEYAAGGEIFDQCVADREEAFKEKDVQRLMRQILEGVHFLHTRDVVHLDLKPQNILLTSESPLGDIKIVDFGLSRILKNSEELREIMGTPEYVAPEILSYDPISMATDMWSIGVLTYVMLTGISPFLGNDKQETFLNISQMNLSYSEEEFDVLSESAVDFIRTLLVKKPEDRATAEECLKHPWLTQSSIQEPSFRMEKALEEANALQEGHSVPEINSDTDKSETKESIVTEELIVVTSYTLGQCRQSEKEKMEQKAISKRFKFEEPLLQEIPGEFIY

[5] = target: Dual specificity tyrosine-phosphorylation-regulated kinase 1B (Homo sapiens) (UniProt Q9Y463); details: Compound concentration 1000.0 nM
[6] = tested on: Epidermal growth factor receptor (Homo sapiens), P00533 [UNDEFINED MUTATION]; details: Compound concentration 1000.0 nM
[7] = target: Ephrin type-A receptor 6 (Homo sapiens) (UniProt Q9UF33); details: Compound concentration 1000.0 nM
[8] = target: Fibroblast growth factor receptor 2 (Homo sapiens) (UniProt P21802); details: Compound concentration 1000.0 nM
[9] = tested on: Receptor-type tyrosine-protein kinase FLT3 (Homo sapiens), P36888 [D835V]; details: Compound concentration 1000.0 nM
[10] = tested on: Receptor-type tyrosine-protein kinase FLT3 (Homo sapiens), P36888 [UNDEFINED MUTATION]; details: Compound concentration 1000.0 nM
[11] = target: Glycogen synthase kinase-3 beta (Homo sapiens) (UniProt P49841); details: Compound concentration 1000.0 nM
[12] = target: Tyrosine-protein kinase HCK (Homo sapiens) (UniProt P08631); details: Compound concentration 1000.0 nM
[13] = tested on: Mast/stem cell growth factor receptor Kit (Homo sapiens), P10721 [V559D,V654A]; details: Compound concentration 1000.0 nM
[14] = target: Serine/threonine-protein kinase PAK 4 (Homo sapiens) (UniProt O96013); details: Compound concentration 1000.0 nM
[15] = target: Platelet-derived growth factor receptor beta (Homo sapiens) (UniProt P09619); details: Compound concentration 1000.0 nM
[16] = target: Phosphatidylinositol 4-phosphate 3-kinase C2 domain-containing subunit beta (Homo sapiens) (UniProt O00750); details: Compound concentration 1000.0 nM
[17] = target: Serine/threonine-protein kinase pim-1 (Homo sapiens) (UniProt P11309); details: Compound concentration 1000.0 nM
[18] = target: T2, cAMP-dependent protein kinase catalytic subunit PRKX (Homo sapiens) (UniProt P51817); details: Compound concentration 1000.0 nM
T2 sequence (whole entry): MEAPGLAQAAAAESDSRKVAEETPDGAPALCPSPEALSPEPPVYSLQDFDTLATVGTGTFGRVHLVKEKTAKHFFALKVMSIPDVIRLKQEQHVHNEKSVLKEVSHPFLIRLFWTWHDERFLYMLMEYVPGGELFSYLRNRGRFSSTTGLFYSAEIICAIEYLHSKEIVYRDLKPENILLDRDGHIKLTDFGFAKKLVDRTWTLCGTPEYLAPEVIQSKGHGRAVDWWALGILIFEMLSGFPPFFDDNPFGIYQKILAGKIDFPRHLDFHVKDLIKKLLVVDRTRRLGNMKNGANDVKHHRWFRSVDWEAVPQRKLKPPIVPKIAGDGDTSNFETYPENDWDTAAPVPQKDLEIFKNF

[19] = target: Receptor-interacting serine/threonine-protein kinase 2 (Homo sapiens) (UniProt O43353); details: Compound concentration 1000.0 nM
[20] = target: 5-hydroxytryptamine receptor 1A (Homo sapiens) (UniProt P08908); details: Compound concentration 10.0 uM
[21] = target: 5-hydroxytryptamine receptor 1E (Homo sapiens) (UniProt P28566); details: Compound concentration 10.0 uM
Chain of 5-hydroxytryptamine receptor 1E (Homo sapiens) (P28566 whole entry): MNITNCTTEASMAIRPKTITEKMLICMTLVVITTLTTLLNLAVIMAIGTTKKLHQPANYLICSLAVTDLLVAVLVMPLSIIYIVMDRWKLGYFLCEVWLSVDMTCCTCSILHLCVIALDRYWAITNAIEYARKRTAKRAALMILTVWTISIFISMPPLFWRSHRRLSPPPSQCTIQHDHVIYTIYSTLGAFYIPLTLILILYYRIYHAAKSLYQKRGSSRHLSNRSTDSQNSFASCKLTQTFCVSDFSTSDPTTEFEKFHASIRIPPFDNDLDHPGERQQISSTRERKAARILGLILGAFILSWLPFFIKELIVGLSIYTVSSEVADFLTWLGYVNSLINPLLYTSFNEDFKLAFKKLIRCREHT

Chain of Dual specificity protein kinase CLK2 (Homo sapiens) (P49760 whole entry, looked up, canonical isoform): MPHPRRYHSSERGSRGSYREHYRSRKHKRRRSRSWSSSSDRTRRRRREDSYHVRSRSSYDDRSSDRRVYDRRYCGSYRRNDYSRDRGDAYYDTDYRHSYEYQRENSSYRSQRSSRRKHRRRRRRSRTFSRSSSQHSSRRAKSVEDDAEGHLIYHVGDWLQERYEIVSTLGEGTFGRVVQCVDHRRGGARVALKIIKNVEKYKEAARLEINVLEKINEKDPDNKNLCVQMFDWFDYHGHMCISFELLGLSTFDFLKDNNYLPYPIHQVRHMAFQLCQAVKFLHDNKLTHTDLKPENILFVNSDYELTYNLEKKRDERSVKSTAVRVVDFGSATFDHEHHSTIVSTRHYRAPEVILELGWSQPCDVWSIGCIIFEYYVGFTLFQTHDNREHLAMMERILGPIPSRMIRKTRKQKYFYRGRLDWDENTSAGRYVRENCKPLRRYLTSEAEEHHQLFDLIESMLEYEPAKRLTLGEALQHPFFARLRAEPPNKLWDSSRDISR
Chain of Tyrosine-protein kinase HCK (Homo sapiens) (P08631 2-526 limits assumed): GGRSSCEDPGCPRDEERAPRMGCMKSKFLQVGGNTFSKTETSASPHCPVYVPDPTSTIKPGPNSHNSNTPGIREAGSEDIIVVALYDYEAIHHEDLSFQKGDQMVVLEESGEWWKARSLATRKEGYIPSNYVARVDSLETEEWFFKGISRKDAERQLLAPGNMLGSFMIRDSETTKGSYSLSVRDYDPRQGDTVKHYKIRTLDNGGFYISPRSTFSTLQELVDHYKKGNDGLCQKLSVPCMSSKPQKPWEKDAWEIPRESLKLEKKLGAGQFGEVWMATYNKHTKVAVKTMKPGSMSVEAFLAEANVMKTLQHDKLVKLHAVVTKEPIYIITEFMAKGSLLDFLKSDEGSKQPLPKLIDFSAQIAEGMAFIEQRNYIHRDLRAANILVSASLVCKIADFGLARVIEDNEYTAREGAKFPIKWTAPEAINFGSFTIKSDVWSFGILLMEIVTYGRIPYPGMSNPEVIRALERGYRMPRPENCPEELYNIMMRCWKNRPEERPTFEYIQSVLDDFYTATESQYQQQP
Chain of Tyrosine-protein kinase ABL1 (Homo sapiens), P00519 [E255K] (P00519 whole entry E255K): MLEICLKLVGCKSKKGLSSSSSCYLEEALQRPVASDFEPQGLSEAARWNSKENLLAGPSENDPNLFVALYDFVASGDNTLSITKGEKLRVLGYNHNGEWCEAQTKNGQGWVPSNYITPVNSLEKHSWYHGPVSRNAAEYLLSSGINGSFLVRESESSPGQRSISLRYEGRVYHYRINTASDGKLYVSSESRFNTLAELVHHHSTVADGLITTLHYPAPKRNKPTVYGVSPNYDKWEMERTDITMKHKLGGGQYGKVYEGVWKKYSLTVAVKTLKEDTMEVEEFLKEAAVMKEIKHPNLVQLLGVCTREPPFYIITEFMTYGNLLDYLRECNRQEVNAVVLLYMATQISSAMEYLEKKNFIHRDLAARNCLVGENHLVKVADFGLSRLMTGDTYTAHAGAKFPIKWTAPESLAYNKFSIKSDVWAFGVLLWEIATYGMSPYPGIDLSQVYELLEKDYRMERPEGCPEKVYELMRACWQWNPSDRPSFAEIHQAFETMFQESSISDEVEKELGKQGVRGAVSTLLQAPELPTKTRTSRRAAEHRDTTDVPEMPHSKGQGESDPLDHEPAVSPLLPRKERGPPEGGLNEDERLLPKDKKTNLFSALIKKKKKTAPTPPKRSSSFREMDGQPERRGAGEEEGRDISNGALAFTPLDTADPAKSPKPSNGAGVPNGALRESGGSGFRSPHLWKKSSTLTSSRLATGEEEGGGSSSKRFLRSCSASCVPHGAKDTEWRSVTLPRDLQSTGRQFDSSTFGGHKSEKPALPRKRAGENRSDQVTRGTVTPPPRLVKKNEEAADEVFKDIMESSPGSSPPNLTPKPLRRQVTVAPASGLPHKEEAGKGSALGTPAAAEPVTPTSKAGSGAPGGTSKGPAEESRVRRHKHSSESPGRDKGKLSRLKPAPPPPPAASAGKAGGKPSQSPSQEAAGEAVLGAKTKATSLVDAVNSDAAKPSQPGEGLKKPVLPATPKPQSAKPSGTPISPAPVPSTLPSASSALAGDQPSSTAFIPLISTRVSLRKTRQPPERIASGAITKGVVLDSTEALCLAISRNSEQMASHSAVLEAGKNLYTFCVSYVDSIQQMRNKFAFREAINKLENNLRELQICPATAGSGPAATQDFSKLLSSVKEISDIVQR
Chain of 5-hydroxytryptamine receptor 1A (Homo sapiens) (P08908 whole entry): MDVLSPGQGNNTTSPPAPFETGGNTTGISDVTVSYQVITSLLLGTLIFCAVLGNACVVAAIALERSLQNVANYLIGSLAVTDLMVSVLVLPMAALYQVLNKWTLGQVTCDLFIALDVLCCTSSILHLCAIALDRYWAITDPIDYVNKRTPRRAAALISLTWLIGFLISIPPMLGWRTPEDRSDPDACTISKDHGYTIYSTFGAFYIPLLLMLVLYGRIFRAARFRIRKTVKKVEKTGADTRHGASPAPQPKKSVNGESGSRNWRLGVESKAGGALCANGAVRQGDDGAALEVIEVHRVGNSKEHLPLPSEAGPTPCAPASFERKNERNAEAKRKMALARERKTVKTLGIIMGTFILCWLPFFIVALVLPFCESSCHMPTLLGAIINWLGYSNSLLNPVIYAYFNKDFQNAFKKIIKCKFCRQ
Chain of Epidermal growth factor receptor (Homo sapiens), P00533 [UNDEFINED MUTATION] (P00533 whole entry, looked up, change not shown): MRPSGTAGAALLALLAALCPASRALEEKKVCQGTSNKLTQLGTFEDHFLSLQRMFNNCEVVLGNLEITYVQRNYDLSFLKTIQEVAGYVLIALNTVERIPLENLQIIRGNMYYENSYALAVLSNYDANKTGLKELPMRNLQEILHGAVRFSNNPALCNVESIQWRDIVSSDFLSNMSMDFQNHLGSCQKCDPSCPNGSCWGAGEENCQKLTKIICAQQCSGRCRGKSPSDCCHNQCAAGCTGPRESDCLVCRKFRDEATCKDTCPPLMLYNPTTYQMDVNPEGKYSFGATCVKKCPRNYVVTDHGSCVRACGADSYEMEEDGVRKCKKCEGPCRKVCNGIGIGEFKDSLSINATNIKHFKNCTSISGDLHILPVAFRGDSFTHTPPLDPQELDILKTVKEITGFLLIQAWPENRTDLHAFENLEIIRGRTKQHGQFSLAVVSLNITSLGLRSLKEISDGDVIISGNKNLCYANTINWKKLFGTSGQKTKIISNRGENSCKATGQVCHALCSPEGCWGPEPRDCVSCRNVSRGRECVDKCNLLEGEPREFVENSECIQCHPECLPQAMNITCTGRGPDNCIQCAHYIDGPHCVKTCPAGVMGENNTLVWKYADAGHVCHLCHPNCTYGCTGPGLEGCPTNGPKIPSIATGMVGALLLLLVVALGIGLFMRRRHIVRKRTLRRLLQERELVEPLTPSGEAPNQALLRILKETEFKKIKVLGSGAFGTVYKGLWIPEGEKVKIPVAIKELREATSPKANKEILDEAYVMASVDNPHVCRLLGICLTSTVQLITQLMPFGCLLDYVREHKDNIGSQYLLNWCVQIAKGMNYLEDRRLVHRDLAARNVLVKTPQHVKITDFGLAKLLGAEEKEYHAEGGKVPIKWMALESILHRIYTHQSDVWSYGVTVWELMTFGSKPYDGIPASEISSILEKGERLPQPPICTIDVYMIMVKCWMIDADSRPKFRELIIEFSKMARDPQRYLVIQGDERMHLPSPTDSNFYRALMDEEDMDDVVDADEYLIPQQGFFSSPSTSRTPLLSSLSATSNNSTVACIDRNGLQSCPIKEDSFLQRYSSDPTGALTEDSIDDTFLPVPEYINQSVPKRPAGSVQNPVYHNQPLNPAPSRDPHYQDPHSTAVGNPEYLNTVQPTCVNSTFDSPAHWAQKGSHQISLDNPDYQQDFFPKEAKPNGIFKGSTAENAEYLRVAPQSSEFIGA
Chain of Serine/threonine-protein kinase PAK 4 (Homo sapiens) (O96013 whole entry, looked up): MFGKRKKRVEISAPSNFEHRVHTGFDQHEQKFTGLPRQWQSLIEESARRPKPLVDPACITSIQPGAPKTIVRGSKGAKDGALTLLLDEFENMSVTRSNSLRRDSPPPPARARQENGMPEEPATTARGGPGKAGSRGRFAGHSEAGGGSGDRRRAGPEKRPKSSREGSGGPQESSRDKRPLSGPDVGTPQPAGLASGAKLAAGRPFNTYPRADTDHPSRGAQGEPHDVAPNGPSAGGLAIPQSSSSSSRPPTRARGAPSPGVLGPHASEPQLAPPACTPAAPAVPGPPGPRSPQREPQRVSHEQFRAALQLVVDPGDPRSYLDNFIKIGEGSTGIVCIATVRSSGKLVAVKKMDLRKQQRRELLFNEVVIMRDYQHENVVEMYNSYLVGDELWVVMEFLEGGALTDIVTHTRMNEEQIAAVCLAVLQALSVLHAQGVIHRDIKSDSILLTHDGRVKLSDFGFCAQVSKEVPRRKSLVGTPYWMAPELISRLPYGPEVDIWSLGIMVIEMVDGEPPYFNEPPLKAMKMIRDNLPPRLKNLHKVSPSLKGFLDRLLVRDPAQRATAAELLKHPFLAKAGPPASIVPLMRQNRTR

Cc1nc(C2CCN(C(=O)c3ccc(OC(F)(F)F)cc3N)CC2)c2ncc(N3CCN(C)CC3)cc2n1 [BAY-693]
inactive: residual activity [1] 100% | residual activity [2] 100% | residual activity [3] 93% | residual activity [4] 100% | residual activity [5] 61% | residual activity [6] 100% | residual activity [7] 95% | residual activity [8] 100% | residual activity [9] 79% | residual activity [10] 84% | residual activity [11] 100% | residual activity [12] 95% | residual activity [13] 100% | residual activity [14] 100% | residual activity [15] 95% | residual activity [16] 86% | residual activity [17] 100% | residual activity [18] 100% | residual activity [19] 94% | inhibition [20] -3.88% | inhibition [21] -9.94%

CN1CCN(c2cnc3c(C4CCN(C(=O)c5ccc(OC(F)(F)F)cc5N)CC4)ncnc3c2)CC1 [BAY-885]
inactive: residual activity [1] 98% | residual activity [2] 100% | residual activity [3] 100% | residual activity [4] 92% | residual activity [5] 54% | residual activity [6] 100% | residual activity [7] 100% | residual activity [8] 100% | residual activity [9] 90% | residual activity [10] 100% | residual activity [11] 100% | residual activity [12] 95% | residual activity [13] 84% | residual activity [14] 91% | residual activity [15] 95% | residual activity [16] 98% | residual activity [17] 90% | residual activity [18] 100% | residual activity [19] 100% | inhibition [20] 7.38% | inhibition [21] 14.2%
